From PubChem BioAssay AID1259407 (Chemical Carcinogenesis Research Information System (CCRIS), 2018)
The source made the active and inactive calls. No rule for the calls is given here.

Tested on: CCRIS mutagenicity, Ames/micronucleus/aberration tests
Assay: CCRIS mutagenicity studies
[1] = Test System: AMES SALMONELLA TYPHIMURIUM, Strain/Indicator: TA98, Metabolic Activation: NONE, Method: PREINCUBATION
[2] = Test System: AMES SALMONELLA TYPHIMURIUM, Strain/Indicator: TA98, Metabolic Activation: RAT, LIVER, S-9, AROCLOR 1254, Method: PREINCUBATION
[3] = Test System: AMES SALMONELLA TYPHIMURIUM, Strain/Indicator: TA100, Metabolic Activation: NONE, Method: PREINCUBATION
[4] = Test System: AMES SALMONELLA TYPHIMURIUM, Strain/Indicator: TA100, Metabolic Activation: RAT, LIVER, S-9, AROCLOR 1254, Method: PREINCUBATION
[5] = Test System: AMES SALMONELLA TYPHIMURIUM, Strain/Indicator: TA98, Metabolic Activation: NONE, Method: STANDARD PLATE
[6] = Test System: AMES SALMONELLA TYPHIMURIUM, Strain/Indicator: TA100, Metabolic Activation: NONE, Method: STANDARD PLATE
[7] = Test System: AMES SALMONELLA TYPHIMURIUM, Strain/Indicator: TA98, Metabolic Activation: HAMSTER, LIVER, S-9, AROCLOR 1254, Method: PREINCUBATION
[8] = Test System: AMES SALMONELLA TYPHIMURIUM, Strain/Indicator: TA100, Metabolic Activation: HAMSTER, LIVER, S-9, AROCLOR 1254, Method: PREINCUBATION
[9] = Test System: AMES SALMONELLA TYPHIMURIUM, Strain/Indicator: TA1535, Metabolic Activation: HAMSTER, LIVER, S-9, AROCLOR 1254, Method: PREINCUBATION
[10] = Test System: AMES SALMONELLA TYPHIMURIUM, Strain/Indicator: TA1535, Metabolic Activation: NONE, Method: PREINCUBATION
[11] = Test System: AMES SALMONELLA TYPHIMURIUM, Strain/Indicator: TA1535, Metabolic Activation: RAT, LIVER, S-9, AROCLOR 1254, Method: PREINCUBATION
[12] = Test System: AMES SALMONELLA TYPHIMURIUM, Strain/Indicator: TA1537, Metabolic Activation: HAMSTER, LIVER, S-9, AROCLOR 1254, Method: PREINCUBATION
[13] = Test System: AMES SALMONELLA TYPHIMURIUM, Strain/Indicator: TA1537, Metabolic Activation: NONE, Method: PREINCUBATION
[14] = Test System: AMES SALMONELLA TYPHIMURIUM, Strain/Indicator: TA1537, Metabolic Activation: RAT, LIVER, S-9, AROCLOR 1254, Method: PREINCUBATION

Measured: mutagenic call

CC(=O)Oc1cc([N+](=O)[O-])c2ccc3cccc4ccc1c2c43
inactive: [2] inactive; negative
active: Test System: AMES SALMONELLA TYPHIMURIUM, Strain/Indicator: TA98(1,8-DNP6), Metabolic Activation: NONE, Method: PREINCUBATION active; positive | Test System: AMES SALMONELLA TYPHIMURIUM, Strain/Indicator: TA98(NR), Metabolic Activation: NONE, Method: PREINCUBATION active; positive | [1] active; positive | [3] active; positive | [4] active; positive

COP(=O)(SC)SC
inactive: Test System: AMES SALMONELLA TYPHIMURIUM, Strain/Indicator: TA97, Metabolic Activation: NONE, Method: STANDARD PLATE inactive; negative | Test System: AMES SALMONELLA TYPHIMURIUM, Strain/Indicator: TA97, Metabolic Activation: RAT, LIVER, S-9, AROCLOR 1254, Method: PREINCUBATION inactive; negative | Test System: AMES SALMONELLA TYPHIMURIUM, Strain/Indicator: TA97, Metabolic Activation: RAT, LIVER, S-9, AROCLOR 1254, Method: STANDARD PLATE inactive; negative | [5] inactive; negative | [2] inactive; negative | Test System: AMES SALMONELLA TYPHIMURIUM, Strain/Indicator: TA98, Metabolic Activation: RAT, LIVER, S-9, AROCLOR 1254, Method: STANDARD PLATE inactive; negative | [6] inactive; negative | [4] inactive; negative | Test System: AMES SALMONELLA TYPHIMURIUM, Strain/Indicator: TA100, Metabolic Activation: RAT, LIVER, S-9, AROCLOR 1254, Method: STANDARD PLATE inactive; negative

C=C(C)[C@H]1CC=C(C)CC1
inactive: End Point: IN VITRO CHROMOSOMAL ABERRATIONS, Test System: CHO CELLS, Metabolic Activation: NONE inactive; negative | End Point: IN VITRO CHROMOSOMAL ABERRATIONS, Test System: CHO CELLS, Metabolic Activation: RAT, LIVER, S-9, AROCLOR 1254 inactive; negative | [7] inactive; negative | [1] inactive; negative | [5] inactive; negative | [2] inactive; negative | Test System: AMES SALMONELLA TYPHIMURIUM, Strain/Indicator: TA98, Metabolic Activation: RAT, LIVER, S-9, AROCLOR, Method: STANDARD PLATE inactive; negative | [8] inactive; negative | [3] inactive; negative | [6] inactive; negative | [4] inactive; negative | Test System: AMES SALMONELLA TYPHIMURIUM, Strain/Indicator: TA100, Metabolic Activation: RAT, LIVER, S-9, AROCLOR, Method: STANDARD PLATE inactive; negative | [9] inactive; negative | [10] inactive; negative | [11] inactive; negative | [12] inactive; negative | [13] inactive; negative | [14] inactive; negative | Test System: AMES SALMONELLA TYPHIMURIUM, Strain/Indicator: UTH8413, Metabolic Activation: NONE, Method: STANDARD PLATE inactive; negative | Test System: AMES SALMONELLA TYPHIMURIUM, Strain/Indicator: UTH8413, Metabolic Activation: RAT, LIVER, S-9, AROCLOR, Method: STANDARD PLATE inactive; negative | Test System: AMES SALMONELLA TYPHIMURIUM, Strain/Indicator: UTH8414, Metabolic Activation: NONE, Method: STANDARD PLATE inactive; negative | Test System: AMES SALMONELLA TYPHIMURIUM, Strain/Indicator: UTH8414, Metabolic Activation: RAT, LIVER, S-9, AROCLOR, Method: STANDARD PLATE inactive; negative | Test System: MOUSE LYMPHOMA, Strain/Indicator: L5178Y (TK+/TK-), Metabolic Activation: NONE, Method: SUSPENSION/PLATE inactive; negative
active: Test System: MOUSE LYMPHOMA, Strain/Indicator: L5178Y (TK+/TK-), Metabolic Activation: RAT, LIVER, S-9, AROCLOR 1254, Method: SUSPENSION/PLATE active; positive

CCCCOc1ccc2nc3cc(Cl)ccc3c(NCCCNCCCl)c2n1
active: [5] active; positive | Test System: AMES SALMONELLA TYPHIMURIUM, Strain/Indicator: TA1536, Metabolic Activation: NONE, Method: STANDARD PLATE active; positive | Test System: AMES SALMONELLA TYPHIMURIUM, Strain/Indicator: TA1537, Metabolic Activation: NONE, Method: STANDARD PLATE active; positive | Test System: AMES SALMONELLA TYPHIMURIUM, Strain/Indicator: TA1538, Metabolic Activation: NONE, Method: STANDARD PLATE active; positive
inactive: [6] inactive; negative | Test System: AMES SALMONELLA TYPHIMURIUM, Strain/Indicator: TA1535, Metabolic Activation: NONE, Method: STANDARD PLATE inactive; negative

CC(=O)NNC(=O)c1ccccn1
inactive: [7] inactive; negative | [1] inactive; negative | [2] inactive; negative | [8] inactive; negative | [3] inactive; negative | [4] inactive; negative | [9] inactive; negative | [10] inactive; negative | [11] inactive; negative | [12] inactive; negative | [13] inactive; negative | [14] inactive; negative

Cc1ccc2cc([N+](=O)[O-])ccc2c1
active: [1] active; positive
